Data as given in patent publication US7094909B2, “HIV protease inhibitors, compositions containing the same, their pharmaceutical uses and materials for their synthesis” (priority 2001, dated 2006).

Assays:
[1] = target: T1, HIV-1 protease (Q7S mutant form) (Human immunodeficiency virus type 1 group M subtype B, UniProt P04585, Q495S); assay: HIV-1 Protease RET assay; format: biochemical; conditions: Ave. Ki (nM), RET assay, Q7S enzyme, Morrison tight binding fit
T1 construct: made in house
Summary of the method: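 Q7S HIV-1 protease, refolded from urea, 2 nM active dimer with 5 μM EDANS/DABCYL peptide cleaved at Tyr-Pro; fluorescence 340/490 nm. 12 min at 37 °C in 0.1M sodium acetate pH 4.8, 1M NaCl, 10% DMSO. Ki from Morrison tight-binding fit.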

[2] = test system: HIV-1 (HIV-1 RF, HIV-1 NL4-3) in CEM-SS / MT-2 cells; assay: Cytopathic effect (CPE) inhibition assay (XTT/MTT dye reduction); format: cell-based; conditions: Human immunodeficiency virus 1, NL43; read-out: Ave CPE EC50
Summary of the method: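 CEM-SS or MT-2 cells were infected with HIV-1 RF or NL4-3 (moi 0.025–0.819) and plated at 2×10^4 cells/well with half-log compound dilutions for 6 days. Viability was read by XTT formazan at 450 nm after 4 h. EC50 restores formazan to 50% of uninfected untreated cells, CC50 halves it in uninfected cells, and TI = CC50/EC50.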

[3] = test system: 461, 84V, 90M virus; assay: Phenotypic susceptibility assay at Virologic, Inc.; format: cell-based, HIV-1; conditions: Human immunodeficiency virus 1, read-out: EC50 or IC50 (mM), values with asterisk (IC50)
Procedure: Compounds were tested in phenotypic susceptibility assays at Virologic, Inc., (See Petropoulos C. J., Parkin N. T., Limoli K. L., Lie Y. S., Wrin T., Huang W., Tian H., Smith D., Winslow G. A., Capon D J, Whitcomb J M. 2000, “A novel phenotypic drug susceptibility assay for human immunodeficiency virus type 1,” Antimicrob Agents Chemother 44(4):920–928) or using the assay described here. MT-2 cells were infected with either HIV-1 NL4-3 or HIV-1 NL4-3([…]) and incubated in the presence of serial 0.5 log dilutions of test compounds. Three days later, culture supernatants were collected and virus production, as determined by p24 ELISA, was assayed. Percent inhibition was calculated as p24 concentration in compound-treated samples as compared to infected, compound-free controls. Inhibition of viral replication is determined by measuring reduction in HIV p24 present in the culture supernatant, using a Beckman-Coulter p24HIV-1 Ag EIA kit and following the supplied protocol. Absorbance is read on a MRX microplate reader (Dynex Technologies). The EC50 was calculated as the concentration of compound that effected a decrease in the p24 production by infected, compound-treated cells to 50% of that produced by infected, compound-free cells.

Compound	melting point	Ki [1]	EC50 [2]	IC50 [3]
COc1cccc(CNC(=O)[C@H]2N(C(=O)[C@@H](O)C(Cc3ccccc3)NC(=O)c3cccc(O)c3C)CSC2(C)C)c1 (single isomer, unassigned)	108 to 110 °C	–	–	–
Cc1c(O)cccc1C(=O)N[C@@H](Cc1ccccc1)[C@H](O)C(=O)N1CSC(C)(C)[C@H]1C(=O)N[C@H]1CCCc2ccccc21 [Example A1, 3-[2-Hydroxy-3-(3-hydroxy-2-methyl-benzoylamino)-4-phenyl-butyryl]-5,5-dimethyl-thiazolidine-4-carboxylic acid (1,2,3,4-tetrahydro-naphthalen-1-yl)-amide]	125 to 126 °C	0.21 nM	29 nM	–
Cc1c(O)cccc1C(=O)N[C@@H](Cc1ccccc1)[C@H](O)C(=O)N1CSC(C)(C)[C@H]1C(=O)N[C@@H]1CCCc2ccccc21 [Example A4, 3-[2-Hydroxy-3-(3-hydroxy-2-methyl-benzoylamino)-4-phenyl-butyryl]-5,5-dimethyl-thiazolidine-4-carboxylic acid (1,2,3,4-tetrahydro-naphthalen-1-yl)-amide]	123 to 125 °C	2.2 nM	270 nM	–
Cc1c(O)cccc1C(=O)N[C@@H](Cc1ccccc1)[C@H](O)C(=O)N1CSC(C)(C)[C@H]1C(=O)NC[C@H]1CCCO1 [Example A12, (R)-3-((2S,3S)-2-Hydroxy-3-{[1-(3-hydroxy-2-methyl-phenyl)-methanoyl]-amino}-4-phenyl-butanoyl)-5,5-dimethyl-thiazolidine-4-carboxylic acid [(R)-1-(tetrahydro-furan-2-yl)methyl]-amide]	105 to 107 °C	5.5 nM	127 nM	–
Cc1c(O)cccc1C(=O)N[C@@H](Cc1ccccc1)[C@H](O)C(=O)N1CSC(C)(C)[C@H]1C(=O)N[C@@H]1CCOc2ccccc21 [Example A16, (R)-3-((2S,3S)-2-Hydroxy-3-{[1-(3-hydroxy-2-methyl-phenyl)-methanoyl]-amino}-4-phenyl-butanoyl)-5,5-dimethyl-thiazolidine-4-carboxylic acid (R)-chroman4-ylamide]	135 to 136 °C	0.43 nM	254 nM	–
Cc1c(O)cccc1C(=O)N[C@@H](Cc1ccccc1)[C@H](O)C(=O)N1CSC(C)(C)[C@H]1C(=O)N[C@@H]1CCSc2ccccc21 [Example A18, (R)-3-((2S,3S)-2-Hydroxy-3-{[1-(3-hydroxy-2-methyl-phenyl)-methanoyl]-amino}-4-phenyl-butanoyl)-5,5-dimethyl-thiazolidine-4-carboxylic acid (R)-thiochroman-4-ylamide]	125 to 127 °C	0.3 nM	27 nM	–
Cc1c(O)cccc1C(=O)N[C@@H](Cc1ccccc1)[C@H](O)C(=O)N1CSC(C)(C)[C@H]1C(=O)N[C@H]1CCSc2ccccc21 [Example A19, (R)-3-((2S,3S)-2-Hydroxy-3-{[1-(3-hydroxy-2-methyl-phenyl)-methanoyl]-amino}-4-phenyl-butanoyl)-5,5-dimethyl-thiazolidine-4-carboxylic acid (S)-thiochroman-4-ylamide]	125 to 127 °C	0.21 nM	15 nM	–
Cc1c(O)cccc1C(=O)N[C@@H](Cc1ccccc1)[C@H](O)C(=O)N1CSC(C)(C)[C@H]1C(=O)NCC1CC1 [Example A20, (R)-3-((2S,3S)-2-Hydroxy-3-{[1-(3-hydroxy-2-methyl-phenyl)-methanoyl]-amino}-4-phenyl-butanoyl)-5,5-dimethyl-thiazolidine-4-carboxylic acid cyclopropylmethyl-amide]	–	0.16 nM	35 nM	219 nM
Cc1c(O)cccc1C(=O)N[C@@H](Cc1ccccc1)[C@H](O)C(=O)N1CSC(C)(C)[C@H]1C(=O)NC1CCCCC1 [Example A21, (R)-3-((2S,3S)-2-Hydroxy-3-{[1-(3-hydroxy-2-methyl-phenyl)-methanoyl]-amino)-4-phenyl-butanoyl)-5,5-dimethyl-thiazolidine-4-carboxylic acid cyclohexylamide]	–	< 0.1 nM	49 nM	655 nM
Cc1c(O)cccc1C(=O)N[C@@H](Cc1ccccc1)[C@H](O)C(=O)N1CSC(C)(C)[C@H]1C(=O)NCc1cccs1 [Example A23, (R)-3-((2S,3S)-2-Hydroxy-3-{[1-(3-hydroxy-2-methyl-phenyl)-methanoyl]-amino}-4-phenyl-butanoyl)-5,5-dimethyl-thiazolidine-4-carboxylic acid (thiophen-2-ylmethyl)-amide]	–	2.6 nM	17 nM	48 nM
Cc1c(O)cccc1C(=O)N[C@@H](Cc1ccccc1)[C@H](O)C(=O)N1CSC(C)(C)[C@H]1C(=O)N[C@@H]1CCc2ccccc21 [Example A29, (R)-3-((2S,3S)-2-Hydroxy-3-{[1-(3-hydroxy-2-methyl-phenyl)-methanoyl]-amino}-4-phenyl-butanoyl)-5,5-dimethyl-thiazolidine4-carboxylic acid (R)-indan-1-ylamide]	128 to 130 °C	0.31 nM	118 nM	–
Cc1c(O)cccc1C(=O)N[C@@H](Cc1ccccc1)[C@H](O)C(=O)N1CSC(C)(C)[C@H]1C(=O)NC1CCC(C)CC1 (stereo partly drawn) [Example A36, (R)-3-((2S,3S)-2-Hydroxy-3-{[1-(3-hydroxy-2-methyl-phenyl)-methanoyl]-amino}-4-phenyl-butanoyl)-5,5-dimethyl-thiazolidine-4-carboxylic acid (4-methyl-cyclohexyl)-amide]	192 to 194 °C	0.78 nM	343 nM	–
Cc1c(O)cccc1C(=O)N[C@@H](Cc1ccccc1)[C@H](O)C(=O)N1CSC(C)(C)[C@H]1C(=O)N[C@H]1C=CCCC1 [Example A38, (R)-3-((2S,3S)-2-Hydroxy-3-{[1-(3-hydroxy-2-methyl-phenyl)-methanoyl]-amino}-4-phenyl-butanoyl)-5,5-dimethyl-thiazolidine-4-carboxylic acid (R)-cyclohex-2-enylamide]	193 to 195 °C	< 0.1 nM	38 nM	–
Cc1ccccc1CNC(=O)[C@H]1N(C(=O)[C@@H](O)[C@H](Cc2ccccc2)NC(=O)O[C@H]2CCOC2)CSC1(C)C [Example B1, {1-Benzyl-3-[5,5-dimethyl-4-(2-methyl-benzylcarbamoyl)-thiazoldin-3-yl]-2-hydroxy-3-oxo-propyl}-carbamic acid tetrahydropfuran-3-yl-ester]	–	0.27 nM	49 nM	236 nM
Cc1ccccc1CNC(=O)[C@H]1N(C(=O)[C@@H](O)[C@H](Cc2ccccc2)NC(=O)c2cccc3c2CCN3)CSC1(C)C [Example B6, 2,3-Dihydro-1H-indole-4-carboxylic acid {(1S,2S)-1-benzyl-3-[(R)-5,5-dimethyl-4-(2-methyl-benzylcarbamoyl)-thiazolidin-3-yl]-2-hydroxy-3-oxo-propyl}-amide]	–	0.31 nM	95 nM	405 nM
Cc1ccccc1CNC(=O)[C@H]1N(C(=O)[C@@H](O)[C@H](Cc2ccccc2)NC(=O)COc2c(C)cccc2C)CSC1(C)C [Example B7, (R)-3-{(2S,3S)-3-[2-(2,6-Dimethylphenoxy)-ethanoylamino]-2-hydroxy-4-phenyl-butanoyl}-5,5-dimethylthiazolidine-4-carboxylic acid 2-methyl-benzylamide]	–	< 0.1 nM	265 nM	333 nM
CCCC(=O)N[C@@H](Cc1ccccc1)[C@H](O)C(=O)N1CSC(C)(C)[C@H]1C(=O)NCc1ccccc1C [Example B20, (R)-3-((2S,3S)-3-Butyrylamino-2-hydroxy-4-phenyl-butyryl)-5,5-dimethyl-thiazolidine-4-carboxylic acid 2-methyl-benzylamide]	–	2.1 nM	1560 nM	2080 nM
C=CCNC(=O)[C@H]1N(C(=O)[C@@H](O)[C@H](Cc2ccccc2)NC(=O)c2cccc3c2CCN3)CSC1(C)C [Example B21, 2,3-Dihydro-1H-indole-4-carboxylic acid [(1S,2S)-3-((R)-4-allylcarbamoyl-5,5-dimethyl-thiazolidin-3-yl)-1-benzyl-2-hydroxy-3-oxo-propyl]-amide]	–	0.91 nM	109 nM	547 nM
